# Measured values taken from patent publication EP0311163A2, “Use of site-specific modified lipolytic enzymes for the selective hydrolysis of organized lipid structures” (DUPHAR INTERNATIONAL RESEARCH B.V, priority 1987, dated 1989).
# What was measured:
# Experiment in all cases: Kinetic measurement with micellar L-dioctanoyl-lecithin (Vmax)
# Assay type in all cases: biochemical
# Conditions in all cases: micellar substrate, titration of fatty acid with 10.3 mM NaOH at pH 6.0
# [1] = biological target: T1, Bovine pancreatic phospholipase A₂ (PLA), native (Bos taurus, UniProt P00593)
# T1 construct: pancreatic pro-PLA's can be purified and converted into the corresponding PLA's; from tissue; host or cells: bovine pancreas
# Protocol: (§1) […]. A value of 8.8 is used for the N-terminal shortened bovine pancreas enzyme fragments missing Trp³. • b. The binding of the PLA's to micellar cis-9-octadecenyl phosphocholine is determined by means of UV absorption difference spectroscopy (De Aranjo et al., Biochem. 18, (1979), 580-586;; and Hille et al., Biochem. 20, (1981), 4068-4073). • c. Monolayer experiments are carried out using the zero order through with two compartments and the surface barostat technique for measuring phospholipid hydrolysis (Verger and De Haas, Chem. Phys. Lipids, 10, (1973), 127-136). Calculation of the induction time (τ) is carried out as described by Verger et al. J. Biol. Chem. 248 (1973), 4023-4034). Surface tension (π) is measured by means of the plate method by Wilhelmy using a thin platinum plate attached to a Beckman R II C Model LM 600 microbalance. • d. Kinetic measurements with micellar diC₈PC are carried out according to De Haas et al, Biochem. Biophys. Acta, 239, (1971) 252-266.
# (§2) This means that the inherent catalytic activity of these pPLA's is not affected by the site-specific acylation. Although acylation of Lys¹¹⁶ with acetyl or maleyl results in a lower Vmax, the remaining activity is sufficient to hydrolyse micellar short chain lecithins effectively. TABLE A
# [2] = biological target: T2, Bovine pancreatic phospholipase A₂, AMPA (fully ε-amidinated PLA) (Bos taurus, UniProt P00593)
# T2 construct: fully ε-amidinated according to the method by Wallace and Harris, Biochem. J., 217, (1984), 589-594, and converted into AMPA; from tissue; host or cells: bovine pancreas; chemically amidinated as the pro-enzyme, then converted to the active enzyme
# Protocol: as §1, §2
# [3] = biological target: T3, Bovine pancreatic phospholipase A₂, [Arg⁶,ε-Pal-Lys¹⁰]-AMPA (Bos taurus, UniProt P00593, N28R)
# T3 construct: Conversion of fully ε-amidinated bovine pancreatic AMPrec in [Arg⁶, ε-Pal-Lys¹⁰]-AMPA; from tissue; host or cells: bovine pancreas; semisynthetic: amidinated fragment 11-123 re-elongated with Pal-Lys, Ile, Met and Ala.Leu.Trp.Gln.Phe.Arg.Gly
# Protocol: as §1, §2
# [4] = biological target: T4, Bovine pancreatic phospholipase A₂, [Arg⁶]-AMPA (Bos taurus, UniProt P00593, N28R)
# T4 construct: fully ε-amidinated according to the method by Wallace and Harris, Biochem. J., 217, (1984), 589-594, and converted into AMPA; from tissue; host or cells: bovine pancreas
# Protocol: as §1, §2
# [5] = biological target: T5, Porcine pancreatic phospholipase A₂ (PLA), native (Sus scrofa, UniProt P00592)
# T5 construct: pancreatic pro-PLA's can be purified and converted into the corresponding PLA's; from tissue; host or cells: pig pancreas
# Protocol: as §1, §2
# [6] = biological target: T6, Porcine pancreatic phospholipase A₂, AMPA (fully ε-amidinated PLA) (Sus scrofa, UniProt P00592)
# T6 construct: fully ε-amidinated according to the method by Wallace and Harris, Biochem. J., 217, (1984), 589-594, and converted into AMPA; from tissue; host or cells: pig pancreas; chemically amidinated as the pro-enzyme, then converted to the active enzyme
# Protocol: as §1, §2
# [7] = tested on: Porcine pancreatic phospholipase A₂, [ε-Ac-Lys¹¹⁶]AMPA
# Protocol: as §1, §2
# [8] = tested on: Porcine pancreatic phospholipase A₂, [ε-Cap-Lys¹¹⁶]AMPA
# Protocol: as §1, §2
# [9] = tested on: Porcine pancreatic phospholipase A₂, [ε-Lau-Lys¹¹⁶]AMPA
# Protocol: as §1, §2
# [10] = tested on: Porcine pancreatic phospholipase A₂, [ε-Mal-Lys¹¹⁶]AMPA
# Protocol: as §1, §2
# [11] = tested on: Porcine pancreatic phospholipase A₂, [ε-NH₂-Lys¹¹⁶]AMPA
# Protocol: as §1, §2
# [12] = tested on: Porcine pancreatic phospholipase A₂, [ε-Ol-Lys¹¹⁶]AMPA
# Protocol: as §1, §2
# [13] = tested on: Porcine pancreatic phospholipase A₂, [ε-Pal-Lys¹¹⁶]AMPA
# Protocol: as §1, §2
# T4 sequence (P00593 23-145 N28R): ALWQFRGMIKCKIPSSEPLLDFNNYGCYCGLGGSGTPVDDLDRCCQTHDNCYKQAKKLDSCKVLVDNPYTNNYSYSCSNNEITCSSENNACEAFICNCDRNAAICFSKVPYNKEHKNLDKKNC
# T3 sequence (P00593 23-145 N28R): as above
# T6 sequence (P00592 23-146): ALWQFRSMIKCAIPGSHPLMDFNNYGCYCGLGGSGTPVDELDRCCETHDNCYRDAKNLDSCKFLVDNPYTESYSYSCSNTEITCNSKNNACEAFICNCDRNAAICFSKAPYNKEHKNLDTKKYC
# T5 sequence (P00592 23-146): as above
# T1 sequence (P00593 23-145): as the sequence (P00593 23-145 N28R) above, with R6N counted along it
# T2 sequence (P00593 23-145): as the sequence (P00593 23-145 N28R) above, with R6N counted along it
smiles,measurement,setting,value
"CCCCCCCC(=O)OC[C@H](COP(=O)([O-])OCC[N+](C)(C)C)OC(=O)CCCCCCC [L-dioctanoyl-lecithin, 1,2-dioctanoyl-sn-glycero-3-phosphocholine]",Vmax micellar L-dioctanoyl-lecithin,[1],3000 µequiv. min⁻¹ mg⁻¹
same,Vmax micellar L-dioctanoyl-lecithin,[2],2300 µequiv. min⁻¹ mg⁻¹
same,Vmax micellar L-dioctanoyl-lecithin,[3],5600 µequiv. min⁻¹ mg⁻¹
same,Vmax micellar L-dioctanoyl-lecithin,[4],5900 µequiv. min⁻¹ mg⁻¹
same,Vmax micellar L-dioctanoyl-lecithin,[5],2200 µequiv. min⁻¹ mg⁻¹
same,Vmax micellar L-dioctanoyl-lecithin,[6],1650 µequiv. min⁻¹ mg⁻¹
same,Vmax micellar L-dioctanoyl-lecithin,[7],755 µequiv. min⁻¹ mg⁻¹
same,Vmax micellar L-dioctanoyl-lecithin,[8],2100 µequiv. min⁻¹ mg⁻¹
same,Vmax micellar L-dioctanoyl-lecithin,[9],2500 µequiv. min⁻¹ mg⁻¹
same,Vmax micellar L-dioctanoyl-lecithin,[10],405 µequiv. min⁻¹ mg⁻¹
same,Vmax micellar L-dioctanoyl-lecithin,[11],2000 µequiv. min⁻¹ mg⁻¹
same,Vmax micellar L-dioctanoyl-lecithin,[12],2600 µequiv. min⁻¹ mg⁻¹
same,Vmax micellar L-dioctanoyl-lecithin,[13],2200 µequiv. min⁻¹ mg⁻¹
